Key:
[1] = molecular target: RAC-alpha serine/threonine-protein kinase (Homo sapiens, UniProt P31749); settings: at 10 µM
[2] = molecular target: T1, Tyrosine-protein kinase Mer (Homo sapiens) (UniProt Q12866); assay: Selectivity interaction (Kinase screening (Nanosyn)) EUB0000604a MERTK
T1 sequence (whole entry): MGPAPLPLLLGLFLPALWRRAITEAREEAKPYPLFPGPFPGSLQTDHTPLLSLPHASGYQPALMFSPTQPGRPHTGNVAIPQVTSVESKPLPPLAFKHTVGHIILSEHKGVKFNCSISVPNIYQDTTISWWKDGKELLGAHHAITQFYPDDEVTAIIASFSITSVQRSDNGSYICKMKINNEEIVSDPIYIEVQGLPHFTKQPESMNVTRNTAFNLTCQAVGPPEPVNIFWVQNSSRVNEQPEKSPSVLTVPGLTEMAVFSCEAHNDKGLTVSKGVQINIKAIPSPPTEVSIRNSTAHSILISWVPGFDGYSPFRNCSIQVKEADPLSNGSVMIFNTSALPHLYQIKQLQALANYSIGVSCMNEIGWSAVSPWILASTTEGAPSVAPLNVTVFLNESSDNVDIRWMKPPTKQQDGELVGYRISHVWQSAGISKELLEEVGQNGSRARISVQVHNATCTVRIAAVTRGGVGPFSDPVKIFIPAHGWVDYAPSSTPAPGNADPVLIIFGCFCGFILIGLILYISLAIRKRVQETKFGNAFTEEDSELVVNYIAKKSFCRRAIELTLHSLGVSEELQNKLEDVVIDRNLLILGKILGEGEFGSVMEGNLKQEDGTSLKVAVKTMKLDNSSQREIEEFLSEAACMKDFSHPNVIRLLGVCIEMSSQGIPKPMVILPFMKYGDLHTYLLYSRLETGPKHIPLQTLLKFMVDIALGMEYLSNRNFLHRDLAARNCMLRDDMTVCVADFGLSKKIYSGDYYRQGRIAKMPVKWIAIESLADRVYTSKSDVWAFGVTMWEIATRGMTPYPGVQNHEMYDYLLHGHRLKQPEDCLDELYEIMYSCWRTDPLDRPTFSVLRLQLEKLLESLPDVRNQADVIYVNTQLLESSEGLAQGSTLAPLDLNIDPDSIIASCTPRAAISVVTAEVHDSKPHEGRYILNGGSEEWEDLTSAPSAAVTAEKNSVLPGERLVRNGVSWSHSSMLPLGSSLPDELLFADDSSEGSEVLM

[3] = molecular target: MAP kinase-interacting serine/threonine-protein kinase 1 (Homo sapiens) (UniProt Q9BUB5); assay: Selectivity interaction (KinomeScan (DiscoverX)) EUB0001049a MKNK1; settings: at 1 µM
[4] = molecular target: T2, Prostaglandin G/H synthase 2 (Homo sapiens) (UniProt P35354); assay: Selectivity interaction (Panel of kinases, GPCRs, ion channels and transporters (enzymatic assay)) EUB0000266bCl PTGS2
T2 sequence (whole entry): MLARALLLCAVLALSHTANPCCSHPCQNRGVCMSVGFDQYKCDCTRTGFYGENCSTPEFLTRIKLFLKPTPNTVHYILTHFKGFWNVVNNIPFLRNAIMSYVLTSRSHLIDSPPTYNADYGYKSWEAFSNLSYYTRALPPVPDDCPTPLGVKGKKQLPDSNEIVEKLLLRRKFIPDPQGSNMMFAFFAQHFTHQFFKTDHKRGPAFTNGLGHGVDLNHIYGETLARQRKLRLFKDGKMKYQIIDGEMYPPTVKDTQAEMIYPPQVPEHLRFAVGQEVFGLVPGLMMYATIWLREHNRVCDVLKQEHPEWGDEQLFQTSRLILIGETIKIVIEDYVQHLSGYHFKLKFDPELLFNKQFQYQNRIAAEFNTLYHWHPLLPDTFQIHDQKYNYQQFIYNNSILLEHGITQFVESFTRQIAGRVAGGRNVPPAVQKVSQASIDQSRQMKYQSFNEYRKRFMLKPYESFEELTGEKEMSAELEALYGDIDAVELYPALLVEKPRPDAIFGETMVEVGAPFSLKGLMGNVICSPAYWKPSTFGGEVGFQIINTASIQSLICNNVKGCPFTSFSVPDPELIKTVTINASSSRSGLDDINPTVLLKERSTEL

[5] = molecular target: LIM domain kinase 2 (Homo sapiens) (UniProt P53671); assay: Selectivity interaction (Kinase panel (Invitrogen)) EUB0000639a LIMK2; settings: at 200 nM
[6] = molecular target: High affinity nerve growth factor receptor (Homo sapiens, UniProt P04629); assay: Selectivity interaction (Kinase panel (Z-LYTE Assay)) EUB0001632a NTRK1; settings: at 10 µM
[7] = molecular target: Serine/threonine-protein kinase N1 (Homo sapiens, UniProt Q16512); assay: Selectivity interaction (KinomeScan (DiscoverX)) EUB0001079a PKN1; settings: at 1 µM
[8] = molecular target: Mitogen-activated protein kinase 3 (Homo sapiens, UniProt P27361); assay: Selectivity interaction (Upstate Kinase Profiler service (Millipore)) EUB0000056c MAPK3; settings: at 1 µM
[9] = molecular target: Misshapen-like kinase 1 (Homo sapiens, UniProt Q8N4C8); assay: Selectivity interaction (KinomeScan (DiscoverX)) EUB0001619a MINK1; settings: at 1 µM
[10] = molecular target: T3, Aurora kinase A (Homo sapiens) (UniProt O14965); assay: Selectivity interaction (Kinase panel (DSF assay)) EUB0001559a STK6
T3 sequence (whole entry): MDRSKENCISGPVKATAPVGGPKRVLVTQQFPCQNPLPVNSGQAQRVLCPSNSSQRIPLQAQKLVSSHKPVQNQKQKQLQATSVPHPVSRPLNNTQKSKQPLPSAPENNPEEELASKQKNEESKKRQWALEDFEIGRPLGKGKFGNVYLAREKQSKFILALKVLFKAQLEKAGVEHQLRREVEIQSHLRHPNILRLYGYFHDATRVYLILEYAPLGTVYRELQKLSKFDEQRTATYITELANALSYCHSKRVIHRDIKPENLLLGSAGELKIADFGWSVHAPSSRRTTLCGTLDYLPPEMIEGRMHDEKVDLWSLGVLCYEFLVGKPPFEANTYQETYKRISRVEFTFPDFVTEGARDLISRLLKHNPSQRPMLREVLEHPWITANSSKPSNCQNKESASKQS

Chain of Mitogen-activated protein kinase 3 (P27361 whole entry): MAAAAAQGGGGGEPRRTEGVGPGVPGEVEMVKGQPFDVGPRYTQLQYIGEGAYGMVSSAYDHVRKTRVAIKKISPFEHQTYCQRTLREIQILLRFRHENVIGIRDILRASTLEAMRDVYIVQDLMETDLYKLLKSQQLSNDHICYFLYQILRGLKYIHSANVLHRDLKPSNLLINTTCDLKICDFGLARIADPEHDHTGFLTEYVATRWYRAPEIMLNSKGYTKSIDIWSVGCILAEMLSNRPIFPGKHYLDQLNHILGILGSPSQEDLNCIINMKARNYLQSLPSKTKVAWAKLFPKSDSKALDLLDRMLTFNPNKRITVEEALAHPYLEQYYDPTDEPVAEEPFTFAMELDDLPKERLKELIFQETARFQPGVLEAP
Chain of High affinity nerve growth factor receptor (P04629 33-796 limits assumed): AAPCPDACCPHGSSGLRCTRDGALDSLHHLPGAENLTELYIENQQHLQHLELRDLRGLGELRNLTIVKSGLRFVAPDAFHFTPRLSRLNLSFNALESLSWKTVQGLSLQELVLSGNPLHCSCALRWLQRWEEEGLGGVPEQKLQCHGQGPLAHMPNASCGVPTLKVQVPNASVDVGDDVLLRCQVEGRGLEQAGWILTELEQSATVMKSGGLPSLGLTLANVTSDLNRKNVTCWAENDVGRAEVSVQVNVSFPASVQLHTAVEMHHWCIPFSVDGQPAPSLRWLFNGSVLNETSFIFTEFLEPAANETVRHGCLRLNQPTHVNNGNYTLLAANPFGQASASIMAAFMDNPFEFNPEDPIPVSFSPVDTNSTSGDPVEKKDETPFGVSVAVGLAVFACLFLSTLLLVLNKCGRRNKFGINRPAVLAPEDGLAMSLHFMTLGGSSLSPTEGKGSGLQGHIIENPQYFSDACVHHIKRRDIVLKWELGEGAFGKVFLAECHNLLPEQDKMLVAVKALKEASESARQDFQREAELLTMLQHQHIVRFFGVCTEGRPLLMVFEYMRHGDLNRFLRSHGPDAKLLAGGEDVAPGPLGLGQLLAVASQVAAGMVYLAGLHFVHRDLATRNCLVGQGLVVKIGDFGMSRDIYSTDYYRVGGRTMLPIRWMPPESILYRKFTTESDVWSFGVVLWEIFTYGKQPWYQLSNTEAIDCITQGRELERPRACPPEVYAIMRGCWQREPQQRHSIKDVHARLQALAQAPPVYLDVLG
Chain of Serine/threonine-protein kinase N1 (Q16512 2-942 limits assumed): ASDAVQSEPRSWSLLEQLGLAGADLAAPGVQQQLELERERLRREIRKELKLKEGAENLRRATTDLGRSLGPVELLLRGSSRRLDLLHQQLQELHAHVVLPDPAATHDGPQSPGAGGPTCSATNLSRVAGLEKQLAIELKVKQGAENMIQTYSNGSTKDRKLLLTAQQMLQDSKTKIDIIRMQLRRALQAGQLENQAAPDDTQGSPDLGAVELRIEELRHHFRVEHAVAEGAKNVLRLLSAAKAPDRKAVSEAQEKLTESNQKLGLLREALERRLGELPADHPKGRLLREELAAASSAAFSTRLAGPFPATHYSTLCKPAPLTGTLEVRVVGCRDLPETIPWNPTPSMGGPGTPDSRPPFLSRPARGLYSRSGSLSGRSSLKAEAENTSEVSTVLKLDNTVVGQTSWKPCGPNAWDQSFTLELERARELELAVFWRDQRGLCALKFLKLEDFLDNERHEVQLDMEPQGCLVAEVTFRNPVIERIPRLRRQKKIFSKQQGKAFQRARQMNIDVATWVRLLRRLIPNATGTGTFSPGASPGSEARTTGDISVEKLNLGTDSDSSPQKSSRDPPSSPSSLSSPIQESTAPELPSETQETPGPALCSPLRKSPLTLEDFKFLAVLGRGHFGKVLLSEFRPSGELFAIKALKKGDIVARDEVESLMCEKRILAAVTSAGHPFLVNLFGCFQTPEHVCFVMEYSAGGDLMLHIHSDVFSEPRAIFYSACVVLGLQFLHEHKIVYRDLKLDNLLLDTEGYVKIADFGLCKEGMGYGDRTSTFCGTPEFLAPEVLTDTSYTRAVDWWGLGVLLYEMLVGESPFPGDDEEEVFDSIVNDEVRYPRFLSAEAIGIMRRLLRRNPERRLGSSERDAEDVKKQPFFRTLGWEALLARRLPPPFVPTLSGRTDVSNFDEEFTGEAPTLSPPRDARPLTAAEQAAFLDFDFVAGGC
Chain of RAC-alpha serine/threonine-protein kinase (P31749 whole entry): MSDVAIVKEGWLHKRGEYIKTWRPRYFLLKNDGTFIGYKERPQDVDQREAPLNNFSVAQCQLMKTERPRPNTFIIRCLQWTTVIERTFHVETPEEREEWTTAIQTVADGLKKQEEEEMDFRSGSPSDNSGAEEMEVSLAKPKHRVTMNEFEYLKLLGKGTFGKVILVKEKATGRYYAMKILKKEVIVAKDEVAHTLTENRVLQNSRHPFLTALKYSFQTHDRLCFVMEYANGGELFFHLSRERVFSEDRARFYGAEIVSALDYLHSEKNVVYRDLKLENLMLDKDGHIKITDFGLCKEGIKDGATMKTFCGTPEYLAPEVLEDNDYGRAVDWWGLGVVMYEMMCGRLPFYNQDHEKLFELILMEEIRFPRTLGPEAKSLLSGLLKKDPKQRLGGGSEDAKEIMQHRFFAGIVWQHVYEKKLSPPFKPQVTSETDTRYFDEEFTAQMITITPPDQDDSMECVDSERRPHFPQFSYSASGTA
Chain of Misshapen-like kinase 1 (Q8N4C8 whole entry, looked up): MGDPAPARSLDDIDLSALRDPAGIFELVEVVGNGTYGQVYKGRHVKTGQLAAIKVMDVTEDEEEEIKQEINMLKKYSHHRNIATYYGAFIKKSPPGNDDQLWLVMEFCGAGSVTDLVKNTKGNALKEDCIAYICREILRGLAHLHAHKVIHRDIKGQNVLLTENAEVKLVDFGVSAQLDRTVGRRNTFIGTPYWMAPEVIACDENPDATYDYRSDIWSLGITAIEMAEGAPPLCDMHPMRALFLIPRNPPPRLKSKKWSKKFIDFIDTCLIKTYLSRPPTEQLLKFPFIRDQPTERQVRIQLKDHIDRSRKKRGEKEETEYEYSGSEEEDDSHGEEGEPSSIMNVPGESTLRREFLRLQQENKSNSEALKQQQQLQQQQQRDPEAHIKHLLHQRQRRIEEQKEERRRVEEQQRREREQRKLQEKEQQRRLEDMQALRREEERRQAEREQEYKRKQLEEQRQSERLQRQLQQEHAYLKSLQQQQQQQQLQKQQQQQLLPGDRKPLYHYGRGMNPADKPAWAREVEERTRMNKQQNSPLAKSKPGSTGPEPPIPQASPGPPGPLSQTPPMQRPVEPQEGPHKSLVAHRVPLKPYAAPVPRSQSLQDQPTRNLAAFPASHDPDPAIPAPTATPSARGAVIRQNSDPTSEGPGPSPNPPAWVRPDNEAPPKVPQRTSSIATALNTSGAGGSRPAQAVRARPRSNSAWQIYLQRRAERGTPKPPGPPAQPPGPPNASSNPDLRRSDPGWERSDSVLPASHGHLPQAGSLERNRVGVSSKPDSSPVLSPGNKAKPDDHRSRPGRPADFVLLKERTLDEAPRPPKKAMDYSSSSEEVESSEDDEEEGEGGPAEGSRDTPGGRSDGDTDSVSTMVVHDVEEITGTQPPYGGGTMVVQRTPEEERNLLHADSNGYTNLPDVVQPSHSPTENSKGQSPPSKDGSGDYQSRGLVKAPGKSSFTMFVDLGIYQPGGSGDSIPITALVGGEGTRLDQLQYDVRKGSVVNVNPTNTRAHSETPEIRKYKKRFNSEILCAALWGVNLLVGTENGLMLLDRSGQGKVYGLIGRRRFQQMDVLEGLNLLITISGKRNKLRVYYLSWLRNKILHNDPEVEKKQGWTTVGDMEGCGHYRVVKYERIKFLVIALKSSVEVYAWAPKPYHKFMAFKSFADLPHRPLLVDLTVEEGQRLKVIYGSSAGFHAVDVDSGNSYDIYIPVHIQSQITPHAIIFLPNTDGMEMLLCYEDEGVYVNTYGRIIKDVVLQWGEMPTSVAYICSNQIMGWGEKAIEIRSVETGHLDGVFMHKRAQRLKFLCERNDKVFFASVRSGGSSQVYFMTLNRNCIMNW
Chain of LIM domain kinase 2 (Homo sapiens) (P53671 whole entry, looked up, the tested form may be a part): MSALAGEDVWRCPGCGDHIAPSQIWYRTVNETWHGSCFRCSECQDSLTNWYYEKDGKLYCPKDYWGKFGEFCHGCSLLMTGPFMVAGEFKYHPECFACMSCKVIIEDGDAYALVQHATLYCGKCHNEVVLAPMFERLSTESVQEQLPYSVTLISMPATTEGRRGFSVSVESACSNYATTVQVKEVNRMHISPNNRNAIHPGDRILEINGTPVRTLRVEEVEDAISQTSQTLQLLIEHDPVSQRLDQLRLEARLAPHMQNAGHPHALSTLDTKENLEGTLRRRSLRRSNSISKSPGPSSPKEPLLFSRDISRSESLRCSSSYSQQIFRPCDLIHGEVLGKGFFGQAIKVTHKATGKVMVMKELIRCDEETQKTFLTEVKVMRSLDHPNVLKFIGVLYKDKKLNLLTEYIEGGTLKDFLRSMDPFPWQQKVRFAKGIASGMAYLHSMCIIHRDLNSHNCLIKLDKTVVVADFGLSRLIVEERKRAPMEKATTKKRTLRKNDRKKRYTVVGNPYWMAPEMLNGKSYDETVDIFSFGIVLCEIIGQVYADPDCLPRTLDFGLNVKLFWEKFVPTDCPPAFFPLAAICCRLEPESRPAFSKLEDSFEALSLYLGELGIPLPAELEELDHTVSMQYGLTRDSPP
Chain of MAP kinase-interacting serine/threonine-protein kinase 1 (Homo sapiens) (Q9BUB5 whole entry, looked up): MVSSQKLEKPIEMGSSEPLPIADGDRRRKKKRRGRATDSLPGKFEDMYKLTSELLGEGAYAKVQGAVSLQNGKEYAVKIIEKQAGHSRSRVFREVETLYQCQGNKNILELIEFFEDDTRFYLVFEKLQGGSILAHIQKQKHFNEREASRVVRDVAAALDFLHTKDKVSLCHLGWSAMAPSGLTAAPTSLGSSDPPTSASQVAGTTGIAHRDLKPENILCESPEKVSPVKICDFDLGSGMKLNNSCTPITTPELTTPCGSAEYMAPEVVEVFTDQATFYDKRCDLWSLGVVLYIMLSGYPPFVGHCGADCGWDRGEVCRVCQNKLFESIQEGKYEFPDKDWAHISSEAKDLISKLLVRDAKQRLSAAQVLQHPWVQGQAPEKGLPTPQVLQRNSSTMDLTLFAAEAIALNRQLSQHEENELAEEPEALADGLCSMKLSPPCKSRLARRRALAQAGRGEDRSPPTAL

## Cc1cc([C@@H](C)Nc2ccccc2C(=O)O)c2nc(N3CCOCC3)cc(=O)n2c1 [AZD-6482]
[1]
  % of control: 100%

## Cc1cnc(Nc2ccc(F)cc2Cl)nc1-c1c[nH]c(C(=O)N[C@H](CO)c2cccc(Cl)c2)c1
[2]
  % of inhibition: 9%

## COc1cc(Nc2nc(C)cc(-c3cnn4nc(OC)ccc34)n2)cc(C(F)(F)F)c1
[3]
  % of control: 93%

## CCn1c(-c2nc3cc(C(=O)N4CCCC(N)C4)ccc3n2C)cc2ccccc21 (stereo not given)
[4]
  pXC50: < 4 M

## CC[C@@H]1[C@H](F)C(=O)N[C@@H]1COc1nccc2cc(C(N)=O)c(OC)cc12 [ZIMLOVISERTIB]
[5]
  % of inhibition: 1.7%

## Cn1cc(-n2cnc3c(NCc4nc5cc(Cl)c(Cl)cc5[nH]4)nc(N4CCOCC4)nc32)cn1
[6]
  % of control: -5.4%

## Nc1cnc(N2CCc3cc(S(=O)(=O)Nc4c(F)cc(Cl)cc4F)cc(N4CCCC4=O)c32)nc1 [TP-020n]
[7]
  % of control: 95%

## Cc1ccc(-c2ccc3c(ccc4sc5c(c43)NC[C@@H](C)NC5=O)n2)cn1
[8]
  % of inhibition: -1%

## N#Cc1cccc(-c2c[nH]c3ncnc(N4CCOCC4)c23)c1
[9]
  % of control: 46%

## CN(C(=O)c1cnn2cccnc12)c1cc2c(cc1N1CCOCC1)C(=O)N(C[C@@H](F)C(C)(C)O)C2
[10]
  dTM: -0.6 K

Source: ChEMBL document CHEMBL5465560, “Selectivity Literature for EUbOPEN Chemogenomic Library” (2024)
